PubChem BioAssay AID330 (DTP/NCI, 2004)
Where “and” joins values, the source holds several entries; their conditions need not be identical. Identical values can stand only once. Inconclusive results and toxic doses are left out.

Tested on: P388 leukemia ip, CD2F1 mice, survival T/C
Experiment: NCI In Vivo Anticancer Drug Screen. Data for tumor model P388 Leukemia (intraperitoneal) in CD2F1 (CDF1) mice
Details: endpoint: median survival time, higher = longer survival
How it was run: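 Mice carrying the transplanted tumor received test compound or vehicle. Survival was recorded in each group, and the value is the treated-group measurement divided by that of the vehicle-treated control group.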

[1] = dose: 50.0 mg/kg/injection, schedule: Q01DX005 (ip), vehicle: Klucel (hydroxypropylcellulose) (HPC)
[2] = dose: 100.0 mg/kg/injection, schedule: Q01DX005 (ip), vehicle: Klucel (hydroxypropylcellulose) (HPC)
[3] = dose: 200.0 mg/kg/injection, schedule: Q01DX005 (ip), vehicle: Klucel (hydroxypropylcellulose) (HPC)
[4] = dose: 50.0 mg/kg/injection, schedule: Q01DX009 (ip), vehicle: saline with Tween-80
[5] = dose: 100.0 mg/kg/injection, schedule: Q01DX009 (ip), vehicle: saline with Tween-80
[6] = dose: 200.0 mg/kg/injection, schedule: Q01DX009 (ip), vehicle: saline with Tween-80
[7] = dose: 50.0 mg/kg/injection, schedule: Q01DX005 (ip), vehicle: saline
[8] = dose: 100.0 mg/kg/injection, schedule: Q01DX005 (ip), vehicle: saline
[9] = dose: 200.0 mg/kg/injection, schedule: Q01DX005 (ip), vehicle: saline
[10] = dose: 50.0 mg/kg/injection, schedule: Q01DX009 (ip), vehicle: Klucel (hydroxypropylcellulose) (HPC)
[11] = dose: 100.0 mg/kg/injection, schedule: Q01DX009 (ip), vehicle: Klucel (hydroxypropylcellulose) (HPC)
[12] = dose: 200.0 mg/kg/injection, schedule: Q01DX009 (ip), vehicle: Klucel (hydroxypropylcellulose) (HPC)
[13] = dose: 50.0 mg/kg/injection, schedule: Q01DX005 (ip), vehicle: saline with Tween-80

## C1=C2COCOC3CCN(C1)C23 (stereo not drawn)
dose: 34.32 mg/kg/injection, schedule: Q01DX005 (ip), vehicle: saline
  T/C: 101 % of control
dose: 68.64 mg/kg/injection, schedule: Q01DX005 (ip), vehicle: saline
  T/C: 107 % of control
dose: 137.28 mg/kg/injection, schedule: Q01DX005 (ip), vehicle: saline
  T/C: 108 % of control

## CC(C)CCCCCCCCCCCCC(O)CC(=O)O (stereo not drawn)
dose: 8.75 mg/kg/injection, schedule: Q01DX005 (ip), vehicle: Klucel + Tween-80
  T/C: 92 % of control
dose: 17.5 mg/kg/injection, schedule: Q01DX005 (ip), vehicle: Klucel + Tween-80
  T/C: 86 % of control
dose: 35.0 mg/kg/injection, schedule: Q01DX005 (ip), vehicle: Klucel + Tween-80
  T/C: 95 % of control

## Cn1nnnc1SCC1=C(C(=O)O)N2C(=O)C(NC(=O)C(OC=O)c3ccccc3)C2SC1 (stereo not drawn)
dose: 50.0 mg/kg/injection, schedule: Q01DX009 (ip), vehicle: saline
  T/C: 100 % of control
dose: 100.0 mg/kg/injection, schedule: Q01DX009 (ip), vehicle: saline
  T/C: 97 % of control
dose: 200.0 mg/kg/injection, schedule: Q01DX009 (ip), vehicle: saline
  T/C: 104 % of control

## COC(=O)C1=C(C(=O)OC)C2(c3ccccc3-c3ccccc32)C2C=CC=NN12 (stereo not drawn)
[1]
  T/C: 100 % of control
[2]
  T/C: 103 % of control
[3]
  T/C: 100 % of control

## O=C1N=C2OC3(CCCCC3)OC(=O)N2C2(CCCCC2)O1
dose: 12.5 mg/kg/injection, schedule: Q01DX009 (ip), vehicle: distilled water + Tween-80
  T/C: 107 % of control
dose: 25.0 mg/kg/injection, schedule: Q01DX009 (ip), vehicle: distilled water + Tween-80
  T/C: 93 % of control
dose: 50.0 mg/kg/injection, schedule: Q01DX009 (ip), vehicle: distilled water + Tween-80
  T/C: 97 % of control
dose: 100.0 mg/kg/injection, schedule: Q01DX009 (ip), vehicle: distilled water + Tween-80
  T/C: 100 % of control and 96 % of control
dose: 200.0 mg/kg/injection, schedule: Q01DX009 (ip), vehicle: distilled water + Tween-80
  T/C: 109 % of control and 114 % of control

## CN(C)S(=O)(=O)Nc1cccc(Br)c1
[4]
  T/C: 103 % of control
[5]
  T/C: 102 % of control
[6]
  T/C: 106 % of control

## CCOC(=O)C(CC)C(=O)c1ccccc1 (stereo not drawn)
dose: 75.0 mg/kg/injection, schedule: Q01DX009 (ip), vehicle: saline with Tween-80
  T/C: 105 % of control
dose: 150.0 mg/kg/injection, schedule: Q01DX009 (ip), vehicle: saline with Tween-80
  T/C: 109 % of control
dose: 300.0 mg/kg/injection, schedule: Q01DX009 (ip), vehicle: saline with Tween-80
  T/C: 112 % of control

## CCOC(=O)N1CCN(C(=O)c2nc3ccc(Cl)cc3[nH]2)CC1
[1]
  T/C: 108 % of control
[2]
  T/C: 87 % of control
[3]
  T/C: 93 % of control

## CCCCCCCCCCCCCCCCCC[N+]1(CC)CCCC1
dose: 6.25 mg/kg/injection, schedule: Q01DX009 (ip), vehicle: saline
  T/C: 97 % of control
dose: 12.5 mg/kg/injection, schedule: Q01DX009 (ip), vehicle: saline
  T/C: 97 % of control
dose: 25.0 mg/kg/injection, schedule: Q01DX009 (ip), vehicle: saline
  T/C: 97 % of control

## c1ccc(C23CCCCC2=Nc2ccccc23)cc1 (stereo not drawn)
[7]
  T/C: 104 % of control
[8]
  T/C: 105 % of control
[9]
  T/C: 107 % of control

## CN=c1ccc2cc3ccc(NC)cc3oc-2c1
[7]
  T/C: 92 % of control
[8]
  T/C: 89 % of control

## CC(=O)OC/C=C(\C)CC(/C=C(C)/C=C/C1=C(C)CCCC1(C)C)S(=O)(=O)c1ccccc1 (stereo not drawn)
dose: 12.5 mg/kg/injection, schedule: Q01DX009 (ip), vehicle: saline with Tween-80
  T/C: 100 % of control
dose: 25.0 mg/kg/injection, schedule: Q01DX009 (ip), vehicle: saline with Tween-80
  T/C: 106 % of control
[4]
  T/C: 90 % of control and 93 % of control
[6]
  T/C: 92 % of control

## O=C1C=C(N(CCCl)CCCl)C(=O)C=C1N(CCCl)CCCl
dose: 50.0 mg/kg/injection, schedule: Q04DX003 (ip), vehicle: Klucel (hydroxypropylcellulose) (HPC)
  T/C: 101 % of control
dose: 200.0 mg/kg/injection, schedule: Q04DX003 (ip), vehicle: Klucel (hydroxypropylcellulose) (HPC)
  T/C: 178 % of control

## COC(=O)C1(C)CCCC2(C)c3cc(O)c(C(C)C)cc3CCC12 (stereo not drawn)
dose: 100.0 mg/kg/injection, schedule: Q01DX001 (ip), vehicle: Klucel (hydroxypropylcellulose) (HPC)
  T/C: 94 % of control
dose: 200.0 mg/kg/injection, schedule: Q01DX001 (ip), vehicle: Klucel (hydroxypropylcellulose) (HPC)
  T/C: 94 % of control
dose: 400.0 mg/kg/injection, schedule: Q01DX001 (ip), vehicle: Klucel (hydroxypropylcellulose) (HPC)
  T/C: 100 % of control

## CC(=O)Nc1ccc(C(=O)O)c([N+](=O)[O-])c1
dose: 25.0 mg/kg/injection, schedule: Q01DX009 (ip), vehicle: Klucel (hydroxypropylcellulose) (HPC)
  T/C: 100 % of control
[10]
  T/C: 107 % of control
[11]
  T/C: 102 % of control
[12]
  T/C: 107 % of control

## CC(C)(C)c1cc(N)cc([N+](=O)[O-])c1
dose: 100.0 mg/kg/injection, schedule: Q04DX002 (ip), vehicle: other
  T/C: 109 % of control
dose: 200.0 mg/kg/injection, schedule: Q04DX002 (ip), vehicle: other
  T/C: 102 % of control

## COc1cc(/C=C(\C)[N+](=O)[O-])cc(Br)c1O
dose: 100.0 mg/kg/injection, schedule: Q04DX003 (ip), vehicle: saline with Tween-80
  T/C: 100 % of control
dose: 200.0 mg/kg/injection, schedule: Q04DX003 (ip), vehicle: saline with Tween-80
  T/C: 109 % of control
dose: 400.0 mg/kg/injection, schedule: Q04DX003 (ip), vehicle: saline with Tween-80
  T/C: 94 % of control

## CC(=O)N1c2ccccc2Sc2ccc3ccccc3c21
[4]
  T/C: 93 % of control
[5]
  T/C: 100 % of control
[6]
  T/C: 99 % of control

## C=CCOc1cc2c(cc1C(C)c1cc(OC)c(OC)c(OC)c1)OCO2 (stereo not drawn)
[13]
  T/C: 101 % of control
dose: 100.0 mg/kg/injection, schedule: Q01DX005 (ip), vehicle: saline with Tween-80
  T/C: 99 % of control
dose: 200.0 mg/kg/injection, schedule: Q01DX005 (ip), vehicle: saline with Tween-80
  T/C: 108 % of control

## O=C1NC(=O)C(SSC2C(=O)NC(=O)NC2=O)C(=O)N1
[10]
  T/C: 109 % of control
[11]
  T/C: 95 % of control
[12]
  T/C: 94 % of control

## N[C@H]1CC[C@@H](C(=O)O)C1
[7]
  T/C: 109 % of control
[8]
  T/C: 101 % of control
[9]
  T/C: 108 % of control

## Cc1ccc(S(=O)(=O)OCCC(C)(C)C)cc1
[4]
  T/C: 106 % of control
[5]
  T/C: 107 % of control
[6]
  T/C: 111 % of control

## Nc1c[n+]([O-])ccn1
dose: 100.0 mg/kg/injection, schedule: Q04DX003 (ip), vehicle: saline
  T/C: 101 % of control
dose: 200.0 mg/kg/injection, schedule: Q04DX003 (ip), vehicle: saline
  T/C: 98 % of control
dose: 400.0 mg/kg/injection, schedule: Q04DX003 (ip), vehicle: saline
  T/C: 93 % of control

## Cc1ccc2c(c1)N(CCSc1ncn[nH]1)C(C)(C)CC2C (stereo not drawn)
dose: 100.0 mg/kg/injection, schedule: Q04DX002 (ip), vehicle: Klucel (hydroxypropylcellulose) (HPC)
  T/C: 97 % of control
dose: 200.0 mg/kg/injection, schedule: Q04DX002 (ip), vehicle: Klucel (hydroxypropylcellulose) (HPC)
  T/C: 92 % of control
dose: 400.0 mg/kg/injection, schedule: Q04DX002 (ip), vehicle: Klucel (hydroxypropylcellulose) (HPC)
  T/C: 97 % of control

## CCOC(=O)N1C(C)C2C=CC1C(S(=O)(=O)c1ccccc1)C2 (stereo not drawn)
[1]
  T/C: 97 % of control
[2]
  T/C: 102 % of control
[3]
  T/C: 97 % of control

## CSc1nc(Cl)c(Cl)c(C(F)(F)F)n1
[13]
  T/C: 103 % of control

## CSCC[C@@H]1C(=O)N(C)[C@H](C(C)(C)C)N1C(=O)c1ccccc1
dose: 60.0 mg/kg/injection, schedule: Q01DX005 (ip), vehicle: saline with Tween-80
  T/C: 100 % of control
dose: 120.0 mg/kg/injection, schedule: Q01DX005 (ip), vehicle: saline with Tween-80
  T/C: 100 % of control
dose: 240.0 mg/kg/injection, schedule: Q01DX005 (ip), vehicle: saline with Tween-80
  T/C: 97 % of control

## [Ni]=[Se]
dose: 60.0 mg/kg/injection, schedule: Q01DX005 (ip), vehicle: saline
  T/C: 97 % of control
dose: 120.0 mg/kg/injection, schedule: Q01DX005 (ip), vehicle: saline
  T/C: 96 % of control
dose: 240.0 mg/kg/injection, schedule: Q01DX005 (ip), vehicle: saline
  T/C: 97 % of control
